Where no end group is shown, it is not given here.
Molecular target: T1, H-2K^b (Mus musculus, UniProt P01901)
T1 construct: For accumulation of peptide-free MHC I proteins at the cell surface, the cells were cultured for 16 hours at 26°C; endogenous in cells; host or cells: RMA-S cells (TAP-deficient mouse T lymphoma)
T1 sequence (P01901 22-369): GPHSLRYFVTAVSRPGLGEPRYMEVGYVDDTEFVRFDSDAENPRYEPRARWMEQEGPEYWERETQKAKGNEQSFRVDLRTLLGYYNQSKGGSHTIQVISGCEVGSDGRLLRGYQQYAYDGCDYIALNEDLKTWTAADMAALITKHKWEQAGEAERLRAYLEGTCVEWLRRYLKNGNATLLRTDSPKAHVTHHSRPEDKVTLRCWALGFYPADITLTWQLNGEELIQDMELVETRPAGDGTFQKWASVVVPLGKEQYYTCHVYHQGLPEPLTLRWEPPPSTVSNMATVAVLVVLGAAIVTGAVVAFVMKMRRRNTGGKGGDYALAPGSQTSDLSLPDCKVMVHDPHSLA
T1 sequence (P01887 21-119 partner): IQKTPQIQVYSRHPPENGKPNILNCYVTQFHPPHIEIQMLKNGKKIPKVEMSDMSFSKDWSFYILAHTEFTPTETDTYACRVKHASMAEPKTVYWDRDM
Assay: MHC I stabilization assay with TAP-deficient RMA-S cells
Format: cell-based
Settings: peptide concentration for 50% of maximal MHC I stabilization (half-maximal MFI), 100 to 5.6 × 10^−4 μg/mL, 1 h room temperature then 1 h 37°C, flow cytometry with antibody B8.24.3, standard deviation in brackets, N = 3, n.d.: not detectable, SD, read-out: Experimental EC50
Description: The stabilization assay was performed as described by Brock et al. using TAP-deficient RMA-S cells (mutagenized Rauscher virus-induced T lymphoma cells of mouse origin). The cells were cultured in DMEM (Gibco-BRL, Karlsruhe, Germany) with 10% FCS (Sigma-Aldrich, Steinheim, Germany) at 37°C with 8% CO2. For accumulation of peptide-free MHC I proteins at the cell surface, the cells were cultured for 16 hours at 26°C. […] The stabilized MHC I proteins were visualized and quantified by flow cytometry using the H-2K^b specific monoclonal antibody B8.24.3 [23] purified in the laboratory from hybridoma culture supernatant by protein G affinity chromatography (Pierce, Darmstadt, Germany) and an R-Phycoerythrin-conjugated anti-mouse antibody (Dianova GmbH, Hamburg, Germany) as secondary reagent. The stabilizing effect of the peptides was determined as mean fluorescence intensity (MFI). The EC50 value is the peptide concentration that is required for half-maximal stabilization of the MHC I molecules at the cell surfaces (half-maximal MFI). All peptides were custom-synthesized by EMC microcollections GmbH (Tübingen, Germany).

Sequence	EC50 [µM]
FHWDYRGL [Peptide 3]	25
FRYPYKTL [Peptide 1]	24
WRFKYDNL [Peptide 4]	7
WRFIYFNL [Peptide 6]	3.6
WDFKFDSV [Peptide 7]	9
WRFVYWRL [Peptide 5]	8
WKFIFDPV [Peptide 8]	0.4

Same assay, conditions: peptide concentration for 50% of maximal MHC I stabilization (half-maximal MFI), 100 to 5.6 × 10^−4 μg/mL, 1 h room temperature then 1 h 37°C, flow cytometry with antibody B8.24.3, standard deviation in brackets, N = 3, n.d.: not detectable, read-out: Experimental EC50

Sequence	EC50 [µM]
FHHAHRTV [sequence 9]	9
FRYIYHTL [Seq. 2]	20

Molecular target: T1, H-2K^b
Assay: not given
Set-up: method as in PMID 1606619
Settings: known nonstabilizing octapeptide; cited from earlier work

Sequence	H-2K^b stabilizing effect in words
LSPFPFDL	nonstabilizing

Source: article PMC2876253, “MHC I Stabilizing Potential of Computer-Designed Octapeptides” (Journal of Biomedicine and Biotechnology, 2010)
